Measurements as given in US9862684B2, “Modulation of K2P channels” (The Regents of the University of California, priority 2013, dated 2018).
pEC50: −log10 of the molar value. Where two headings read alike, the source gives them in different places. Each block holds one molecule with its values, some of them ahead of it.

Key:
[1] = biological target: T1, K2P2.1 (TREK-1) (Homo sapiens, UniProt O95069); conditions: cited from earlier work
T1 sequence (O95069 1-426): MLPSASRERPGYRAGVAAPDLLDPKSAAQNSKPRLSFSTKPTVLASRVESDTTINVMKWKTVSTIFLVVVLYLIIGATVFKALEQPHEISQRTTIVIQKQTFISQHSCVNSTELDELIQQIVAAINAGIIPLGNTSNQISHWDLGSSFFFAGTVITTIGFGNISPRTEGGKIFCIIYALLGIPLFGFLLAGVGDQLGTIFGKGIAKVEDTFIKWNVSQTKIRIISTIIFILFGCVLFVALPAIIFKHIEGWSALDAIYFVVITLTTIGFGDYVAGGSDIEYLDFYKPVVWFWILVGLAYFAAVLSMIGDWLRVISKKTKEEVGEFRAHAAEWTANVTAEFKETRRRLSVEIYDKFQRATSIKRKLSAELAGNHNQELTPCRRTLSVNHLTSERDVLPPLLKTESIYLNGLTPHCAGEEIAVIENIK

[2] = biological target: T2, TREK-1 (Mus musculus, UniProt P97438); assay: Antagonist compound examples, modulation of TREK-1 (current inhibition), Table 5; format: cell-based, Murine
T2 construct: expressed in transfected cells
T2 sequence (P97438 1-411 isoform P97438-2): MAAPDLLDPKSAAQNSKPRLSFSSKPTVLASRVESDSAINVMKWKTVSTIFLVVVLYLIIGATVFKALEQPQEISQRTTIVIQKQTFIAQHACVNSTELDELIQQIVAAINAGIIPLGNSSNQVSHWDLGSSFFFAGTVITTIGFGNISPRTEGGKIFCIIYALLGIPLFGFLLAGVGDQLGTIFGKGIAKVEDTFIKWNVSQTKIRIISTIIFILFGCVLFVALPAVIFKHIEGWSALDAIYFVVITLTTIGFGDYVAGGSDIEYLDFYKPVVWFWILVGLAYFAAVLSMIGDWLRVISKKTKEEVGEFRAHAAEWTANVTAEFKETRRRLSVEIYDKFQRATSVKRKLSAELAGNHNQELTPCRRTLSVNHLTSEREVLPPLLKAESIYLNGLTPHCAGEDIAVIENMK
Description: (§1) Two-electrode voltage clamp recordings were performed from defolliculated stage V-VI Xenopus oocytes 24-48 hours after injection with 0.015-6.0 ng cRNA, using microelectrodes (0.3-3.0 MΩ) filled with 3M KCl. Data was acquired using the GeneClamp 500B (MDS Analytical Technologies) amplifier controlled by the pClamp software (Molecular Devices), and digitized at 1 kHz using Digidata 1332A (MDS Analytical Technologies). Recording solutions (mM): 2K (96 NaCl, 2 KCl, 1.8 CaCl2, 2 MgCl2), 90K (90 KCl, 8 NaCl, 1.8 CaCl2, 2 MgCl2), were buffered 5 mM HEPES pH 7.4. For K2P recordings, currents we elicited by a 1 second long ramp from −150 to +50 mV from a holding potential of −80 mV (2K), or −100 to +50 mV from a holding potential of 0 mV (90K). For KCNQ2 recordings, currents were elicited by a step protocol from −120 to 60 mV, in 20 mV increments, from a holding potential of −80 mV. Patch-clamp recordings from HEK-293T cells were performed using microelectrodes (2-3 MΩ) filled with 1M KCl. Data was acquired using the Axopatch 200B amplifier controlled by pClamp software, and digitized at 1 kHz using Digidata 1332A. Recording solutions (mM): intracellular (145 KCl, 5 EGTA, 3 MgCl2,) extracellular (150 NaCl, 5 KCl, 3 MgCl2, 1 CaCl2) were buffered with 5 mM HEPES pH 7.2 and 7.4, respectively. Currents were elicited by a 1 second long ramp from −150 to +50 mV from a holding potential of −80 mV. Data were fitted with a modified Hill's equation: I=Imin+(Imax−Imin)/(1+10^((Log EC50−Log [C])*H)), where Imax and Imin are maximal and minimal current values, respectively, EC50 is a half-maximal effective concentration of the compound, and H is the Hill coefficient.

[3] = Solubility (remarks); format: physicochemical
[4] = biological target: T3, K2P2.1 (TREK-1) (Mus musculus, UniProt P97438); assay: Two-electrode voltage clamp of Xenopus oocytes expressing K2P2.1 (TREK-1); format: cell-based, Murine; conditions: two-electrode voltage clamp, Xenopus oocytes
T3 construct: expressed in transfected cells; host or cells: Xenopus oocytes (cRNA injection, pGEMHE/pMO)
T3 sequence (P97438 1-411 isoform P97438-2): T2 sequence (P97438 1-411 isoform P97438-2)
Description: (§2) Two-electrode voltage clamp recordings were performed from defolliculated stage V-VI Xenopus oocytes 24-48 hours after injection with 0.015-6.0 ng cRNA, using microelectrodes (0.3-3.0 MΩ) filled with 3M KCl. […] Recording solutions (mM): 2K (96 NaCl, 2 KCl, 1.8 CaCl2, 2 MgCl2), 90K (90 KCl, 8 NaCl, 1.8 CaCl2, 2 MgCl2), were buffered 5 mM HEPES pH 7.4. For K2P recordings, currents we elicited by a 1 second long ramp from −150 to +50 mV from a holding potential of −80 mV (2K), or −100 to +50 mV from a holding potential of 0 mV (90K). For KCNQ2 recordings, currents were elicited by a step protocol from −120 to 60 mV, in 20 mV increments, from a holding potential of −80 mV. […] Currents were elicited by a 1 second long ramp from −150 to +50 mV from a holding potential of −80 mV.

[5] = biological target: T4, K2P10.1 (TREK-2) (Mus musculus, UniProt Q8BUW1); assay: Two-electrode voltage clamp, Xenopus oocytes expressing K2P10.1 (TREK-2); format: cell-based, Murine
T4 construct: expressed in transfected cells; host or cells: Xenopus oocytes
T4 sequence (Q8BUW1 1-535): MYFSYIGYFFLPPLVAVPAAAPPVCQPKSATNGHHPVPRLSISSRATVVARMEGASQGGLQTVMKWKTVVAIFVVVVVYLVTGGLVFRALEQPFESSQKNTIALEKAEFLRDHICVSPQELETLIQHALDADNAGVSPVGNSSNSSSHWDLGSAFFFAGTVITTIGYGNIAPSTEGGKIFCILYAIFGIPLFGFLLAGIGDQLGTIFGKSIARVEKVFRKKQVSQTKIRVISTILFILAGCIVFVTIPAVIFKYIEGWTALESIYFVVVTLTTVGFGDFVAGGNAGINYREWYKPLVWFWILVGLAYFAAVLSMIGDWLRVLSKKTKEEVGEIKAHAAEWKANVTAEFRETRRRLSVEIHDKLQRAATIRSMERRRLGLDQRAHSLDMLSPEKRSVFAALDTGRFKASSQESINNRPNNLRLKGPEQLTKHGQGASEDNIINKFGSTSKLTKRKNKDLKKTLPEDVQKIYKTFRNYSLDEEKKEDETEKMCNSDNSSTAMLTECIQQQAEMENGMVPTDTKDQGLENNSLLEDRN
Description: (§3) FIG. 7 ML67-33 is a selective activator of heat- and mechanosensitive K2P channels. a-f, Exemplar I-V curves showing the effect of ML67-33 on a, K2P10.1 (TREK-2), b, K2P4.1 (TRAAK), c, K2P3.1 (TASK-1), d, K2P9.1 (TASK-3), e, K2P5.1 (TASK-2), and f, K2P18.1 (TRESK) measured in Xenopus oocytes in 2 mM [K^+]o pH 7.4. Currents were elicited by a voltage ramp from −150 to 50 mV, from a holding potential of −80 mV. g, Quantification of the effect of ML67-33 on the indicated channels. Data (mean±s.e., n≧6, N≧2) was normalized to basal channel activity and fitted to the Hill equation. […] Error bars indicate s.e., n≧6, N≧2.
(§4) Murine K2P channels were cloned into pGEMHE/pMO {Bagriantsev, 2011}, IRES-GFP (Invitrogen), or pYES2-MET25 (high copy 2μ, URA3) {Minor, 1999} for expression in oocytes, HEK-293T cells, and yeast, respectively, using standard molecular biology procedures, and verified by DNA sequencing.
as §1
(§5) There are six K2P subgroups {Noel, 2011} (FIG. 11). […]

[6] = biological target: T5, K2P3.1 (TASK-1) (Mus musculus, UniProt O35111); assay: Two-electrode voltage clamp, Xenopus oocytes expressing K2P3.1 (TASK-1); format: cell-based, Murine
T5 construct: expressed in transfected cells; host or cells: Xenopus oocytes
T5 sequence (O35111 whole entry): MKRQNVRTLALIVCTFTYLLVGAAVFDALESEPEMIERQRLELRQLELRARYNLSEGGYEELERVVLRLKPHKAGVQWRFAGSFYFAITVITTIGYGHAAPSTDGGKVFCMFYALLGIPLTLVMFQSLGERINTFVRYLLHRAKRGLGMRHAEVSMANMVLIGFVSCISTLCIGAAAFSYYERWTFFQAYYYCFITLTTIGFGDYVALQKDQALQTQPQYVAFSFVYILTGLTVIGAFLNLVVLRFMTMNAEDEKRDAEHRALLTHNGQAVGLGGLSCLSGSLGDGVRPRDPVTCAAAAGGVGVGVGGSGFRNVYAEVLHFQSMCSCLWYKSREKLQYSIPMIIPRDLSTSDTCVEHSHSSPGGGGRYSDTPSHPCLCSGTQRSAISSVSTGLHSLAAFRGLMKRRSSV
Description: as §3, §4, §1, §5

[7] = biological target: T6, Kv7.2 (KCNQ2) (Homo sapiens, UniProt O43526); assay: Two-electrode voltage clamp, Xenopus oocytes expressing Kv7.2 (KCNQ2); format: cell-based
T6 construct: expressed in transfected cells; host or cells: Xenopus oocytes
Description: FIG. 12 Exemplar I-V curves showing the effect of 100 μM ML67-33 Kv7.2 (KCNQ2) measured by two-electrode voltage clamp in Xenopus oocytes in 2 mM [K^+]o pH 7.4. Currents were elicited by a step protocol from −120 to 60 mV, in 20 mV increments, from a holding potential of −80 mV.
as §1

[8] = biological target: T2, TREK-1; assay: Modulation of TREK-1 by select compounds (agonist activity), Table 3; format: cell-based, Murine; conditions: agonist activity on TREK-1
Description: as §2

[9] = 25 μM, 0 mV, read-out: inhibition at 25 μM at 0 mV

SMILES: CCCCC/C=C\C/C=C\C/C=C\C/C=C\CCCC(=O)O [arachidonic acid]
activation of K2P2.1 (TREK-1) ([1]; at 10-20 μM): 3-12 fold

inhibition at 25 µM [2, 9]: 22.5%
SMILES: c1ccc(CCNc2ncnc3c2cnn3-c2ccccc2)cc1 [ML45-1, 1-phenyl-N-(2-phenylethyl)-1H-pyrazolo[3,4-d]pyrimidin-4-amine]

solubility (in words) [3]: insoluble
SMILES: O=C(O)/C=C/n1c2ccc(Cl)cc2c2cc(Cl)ccc21 [ML67-16, (E)-3-(3,6-dichlorocarbazol-9-yl)prop-2-enoic acid]

SMILES: O=C(O)CCn1c2ccc(Cl)cc2c2cc(Cl)ccc21 [ML67, 3-(3,6-dichlorocarbazol-9-yl)propanoic acid]
effect on K2P2.1 (TREK-1) function / activity (in words) [4]: activated the channel
pEC50 ([5]; Xenopus oocytes, 2 mM [K+]o pH 7.4): < 3.60
Emax (fold) at 500 μM ([5]; at 500 μM): 10.1 ± 1.1 at 500 μM fold
functional effect / activation (in words) ([6]; ML67-33 applied at 100 μM, ML67 concentration not stated): not
Emax (fold) at 500 μM ([6]; at 500 μM): 1.2 ± 0.0 at 500 μM fold
effect on Kv7.2 (KCNQ2) (in words) ([7]; ML67-33 at 100 μM, ML67 concentration not stated): no effect
Emax (fold) at 500 μM ([7]; at 500 μM): 1.8 ± 0.0 at 500 μM fold
pEC50 [8]: 3.67

inhibition at 25 µM [2, 9]: 31.9%
SMILES: Cc1ccc(-n2ncc3c(NCCc4ccccc4)ncnc32)cc1C [ML45-3, 1-(3,4-dimethylphenyl)-N-(2-phenylethyl)-1H-pyrazolo[3,4-d]pyrimidin-4-amine]

inhibition at 25 µM [2, 9]: 20.7%
SMILES: Clc1ccc(-n2ncc3c(NCCc4ccccc4)ncnc32)cc1 [ML45-4, 1-(4-chlorophenyl)-N-(2-phenylethyl)-1H-pyrazolo[3,4-d]pyrimidin-4-amine]

inhibition at 25 µM [2, 9]: 25.2%
SMILES: Cc1ccc(-n2ncc3c(NCCc4ccccc4)ncnc32)cc1 [ML45-2, 1-(4-methylphenyl)-N-(2-phenylethyl)-1H-pyrazolo[3,4-d]pyrimidin-4-amine]

inhibition at 25 µM [2, 9]: 2.7%
SMILES: Cc1cccc(-n2ncc3c(NCCc4ccc(S(N)(=O)=O)cc4)ncnc32)c1 [ML45-5, 4-(2-{[1-(3-methylphenyl)-1H-pyrazolo[3,4-d]pyrimidin-4-yl]amino}ethyl)benzene-1-sulfonamide]

effect on K2P2.1 (TREK-1) function / activity (in words) [4]: inhibitors
inhibition at 25 µM ([2]; read-out: current inhibition at 25 μM): ~30%
SMILES: Cc1cccc(-n2ncc3c(NCCc4ccccc4)ncnc32)c1 [ML45, 1-(3-methylpyhenyl)-N-(2-phenylethyl)-1H-pyrazolo[3,4-d]pyrimidin-4-amine]

solubility (in words) [3]: insoluble
SMILES: O=C(CCn1c2ccc(Cl)cc2c2cc(Cl)ccc21)NO [ML67-19, 3-(3,6-dichlorocarbazol-9-yl)-N-hydroxy-propanamide]

SMILES: ClC(Cl)Cl [chloroform]
activation of K2P2.1 (TREK-1) ([1]; at 1.6 mM): 5.5 fold
